Measured values taken from US8178547B2, “Heterocyclic antiviral compounds” (Roche Palo Alto LLC, priority 2008, dated 2012).

How the values were obtained:
[1] = biological target: T1, HCV polymerase (NS5B570n-Con1) (Hepatitis C virus genotype 1b, UniProt Q9WMX2); test: HCV NS5B RNA polymerase activity; format: biochemical, HCV Con1 strain
T1 construct: a 21 amino acid C-terminal deletion of full-length HCV polymerase; made in house; host or cells: E. coli BL21(DE3) pLysS, plasmid pET17b
Method: The enzymatic activity of HCV polymerase (NS5B570n-Con1) was measured as the incorporation of radiolabeled nucleotide monophosphates into acid insoluble RNA products. Unincorporated radiolabeled substrate was removed by filtration and scintillant was added to the washed and dried filter plate containing radiolabeled RNA product. The amount of RNA product generated by NS5B570n-Con1 at the end of the reaction was directly proportional to the amount of light emitted by the scintillant.
The HCV polymerase used in the enzymatic activity assay is a 21 amino acid C-terminal deletion of full-length HCV polymerase derived from HCV Con1 strain, genotype 1b (GenBank accession number AJ242654) (NS5B570n-Con1). The NS5B570n-Con1 was sub-cloned downstream to the T7 promoter of the plasmid expression construct pET17b and transformed into E. coli strain BL21(DE3) pLysS for protein expression. A single colony was used to start an innoculum for a 10 L culture in LB media supplemented with 100 μg/mL ampicillin at 37° C. Protein expression was induced by the addition of 0.25 mM isopropyl-β-D-thiogalactopyranoside (IPTG) when the optical density of the culture at […] was 0.8. Induction of protein expression was carried out at 30° C. for 16 h after which the cells were harvested by centrifugation. NS5B570n-Con1 was purified to homogeneity using a three-column purification protocol including subsequent column chromatography on Ni-NTA, SP-Sepharose HP and Superdex 75 resins.
[…] TRK-412; specific activity: 30 to 60 Ci/mmol;), 1 μM each ATP, CTP, and GTP, 40 mM Tris-HCl pH 8.0, 40 mM NaCl, 4 mM DTT (dithiothreitol), 4 mM MgCl2, 5 μl of compound serial diluted in DMSO, and nuclease-free water to a final reaction volume of 50 μl. Enzymatic reactions in the presence of poly A RNA template (see section 0004) contained 20 nM Poly A:oligo(rU)16 premixed (see section 0004), 20 nM NS5B570n-Con1 enzyme, 1 μCi of tritiated UTP (Perkin Elmer catalog no. TRK-412; specific activity: 30 to 60 Ci/mmol), 40 mM Tris-HCl pH 8.0, 40 mM NaCl, 4 mM DTT (dithiothreitol), 4 mM MgCl2, 5 μl of compound serial diluted in DMSO, and nuclease-free water to a final reaction volume of 50 μl. Reaction mixtures were assembled in 96-well filter plates (cat #MADVN0B, Millipore Co.) and incubated for 2 h at 30° C. Reactions were stopped by addition of 10% final (v/v) trichloroacetic acid and incubated for 40 min at 4° C. Reactions were filtered, washed with 8 reaction volumes of 10% (v/v) trichloroacetic acetic acid, 4 reaction volumes of 70% (v/v) ethanol, air dried, and 25 μl of scintillant (Microscint 20, Perkin-Elmer) was added to each reaction well.
Two RNA templates were used to assay compounds described herein. The cIRES RNA template was 377 nucleotide long and consisted of a partial complementary sequence (36 nucleotides) of the core protein, followed by 341 nucleotide of the complementary sequence of the internal ribosome entry site. The poly A RNA template (GE Amersham catalog number 27-4110) was a homopolymeric RNA pre-annealed to a oligo(rU)16 primer at a molar ratio of 3-to-1 (primer-template).
The amount of light emitted from the scintillant was converted to counts per minute (CPM) on a Topcount® plate reader (Perkin-Elmer, Energy Range: Low, Efficiency Mode: Normal, Count Time: 1 min, Background Subtract: none, Cross talk reduction: Off).
Data was analyzed in Excel® (Microsoft) and ActivityBase® (Idbs®). The reaction in the absence of enzyme was used to determine the background signal, which was subtracted from the enzymatic reactions. […] All data was expressed as a percentage of the positive control. The compound concentration at which the enzyme-catalyzed rate of RNA synthesis was reduced by 50%

[2] = tested on: HCV replicon cells (2209-23), genotype 1b replicon; test: HCV replicon assay (Renilla luciferase reporter); format: cell-based, HCV genotype 1b; conditions: Hepatitis C virus, 72 h; 2209-23 cells, three days incubation
[3] = in vitro; conditions: human
[4] = tested on: HCV; conditions: cited from earlier work
[5] = NS5B pol inhibition IC50, as in Example 32 (20 nM RNA template)
[6] = NS5B pol inhibition IC50, cell values marked ^2, as in Example 32 except RNA template concentration 3 nM (footnote 3)

Structure (SMILES)	IC50 [1, 5]	IC50 [2]	melting point	other results
COc1c(CCc2ccc(NS(C)(=O)=O)cc2)cc(-c2ncc[nH]c2=O)cc1C(C)(C)C [Compound I-1, N-(4-{2-[3-tert-Butyl-2-methoxy-5-(3-oxo-3,4-dihydro-pyrazin-2-yl)-phenyl]-ethyl}-phenyl)-methanesulfonamide]	15 nM	112 nM	238 to 240 °C	CC50 [3]: 24200 nM
COc1c(NC(=O)c2ccc(NS(C)(=O)=O)cc2)cc(-c2ncc[nH]c2=O)cc1C(C)(C)C [Compound I-4, N-[3-tert-Butyl-2-methoxy-5-(3-oxo-3,4-dihydro-pyrazin-2-yl)-phenyl]-4-methanesulfonylamino-benzamide]	6 nM	347 nM	–	–
COc1c(/C=C/c2ccc(NS(C)(=O)=O)cc2C(=O)O)cc(-c2ccn[nH]c2=O)cc1C(C)(C)C [Compound I-9, 2-{(E)-2-[3-tert-Butyl-2-methoxy-5-(3-oxo-2,3-dihydro-pyridazin-4-yl)-phenyl]-vinyl}-5-methanesulfonylamino-benzoic acid]	0.2 nM	71 nM	–	–
COc1c(/C=C/c2ccc(NS(C)(=O)=O)cc2)cc(-c2ccn[nH]c2=O)cc1C(C)(C)C [Compound I-13, N-(4-{(E)-2-[3-tert-Butyl-2-methoxy-5-(3-oxo-2,3-dihydro-pyridazin-4-yl)-phenyl]-vinyl}-phenyl)-methanesulfonamide]	4 nM	1 nM	–	–
CC1(C)COc2c(-c3ccn[nH]c3=O)cc(/C=C/c3ccc(NS(C)(=O)=O)cc3)cc21 [Compound I-21, N-(4-{(E)-2-[3,3-Dimethyl-7-(3-oxo-2,3-dihydro-pyridazin-4-yl)-2,3-dihydro-benzofuran-5-yl]-vinyl}-phenyl)-methanesulfonamide]	–	113 nM	255 to 257 °C	IC50 [1, 6]: 2 nM
COc1c(/C=C/c2ccc(NS(C)(=O)=O)cc2)cc(-c2cnc[nH]c2=O)cc1C(C)(C)C [Compound I-22, N-(4-{(E)-2-[3-tert-Butyl-2-methoxy-5-(6-oxo-1,6-dihydro-pyrimidin-5-yl)-phenyl]-vinyl}-phenyl)-methanesulfonamide]	–	–	–	IC50 [1, 6]: 2 nM; CC50 [3]: 23200 nM
COC(=O)c1cc(NS(C)(=O)=O)ccc1/C=C/c1cc(-c2cnc(OCc3ccccc3)[nH]c2=O)cc(C(C)(C)C)c1OC [Compound I-24]	–	40 nM	–	IC50 [1, 6]: 11 nM; CC50 [3]: 4700 nM
COc1c(/C=C/c2ccc(NS(C)(=O)=O)cc2)cc(-c2c[nH]c(=O)[nH]c2=O)c2c1C(C)(C)CO2 [Compound I-28, N-(4-{(E)-2-[7-(2,4-dioxo-1,2,3,4-tetrahydro-pyrimidin-5-yl)-4-methoxy-3,3-dimethyl-2,3-dihydro-benzofuran-5-yl]-vinyl}-phenyl)-methanesulfonamide]	0.6 nM	–	> 300 °C	–
COc1c(/C=C/c2ccc(NS(C)(=O)=O)cc2)cc(-c2c[nH]c(=O)[nH]c2=O)cc1C1(C(F)F)CC1 [Compound I-30, N-(4-{(E)-2-[3-(1-Difluoromethyl-cyclopropyl)-5-(2,4-dioxo-1,2,3,4-tetrahydro-pyrimidin-5-yl)-2-methoxy-phenyl]-vinyl}-phenyl)-methanesulfonamide]	0.3 nM	–	292 to 295 °C	–
COc1c(/C=C/c2ccc(NS(C)(=O)=O)cc2)cc(-c2ncc[nH]c2=O)cc1C1(C(F)F)CC1 [Compound I-31, N-(4-{(E)-2-[3-(1-Difluoromethyl-cyclopropyl)-2-methoxy-5-(3-oxo-3,4-dihydro-pyrazin-2-yl)-phenyl]-vinyl}-phenyl)-methanesulfonamide]	0.3 nM	–	241 to 243 °C	–
COc1c(/C=C/c2ccc(NS(C)(=O)=O)cc2)cc(-c2cnc(Cl)[nH]c2=O)cc1C(C)(C)C [Compound I-32, N-(4-{(E)-2-[3-tert-Butyl-5-(2-chloro-6-oxo-1,6-dihydro-pyrimidin-5-yl)-2-methoxy-phenyl]-vinyl}-phenyl)-methanesulfonamide]	5 nM	–	> 300 °C	–
COc1c(/C=C/c2ccc(NS(C)(=O)=O)cc2)cc(-c2cnc(N(C)C)[nH]c2=O)cc1C(C)(C)C [Compound I-33, N-(4-{(E)-2-[3-tert-Butyl-5-(2-dimethylamino-6-oxo-1,6-dihydro-pyrimidin-5-yl)-2-methoxy-phenyl]-vinyl}-phenyl)-methanesulfonamide]	2.6 nM	–	> 300 °C	–
COc1ncc(-c2cc(/C=C/c3ccc(NS(C)(=O)=O)cc3)c(OC)c(C(C)(C)C)c2)c(=O)[nH]1 [Compound I-34, N-(4-{(E)-2-[3-tert-Butyl-2-methoxy-5-(2-methoxy-6-oxo-1,6-dihydro-pyrimidin-5-yl)-phenyl]-vinyl}-phenyl) methanesulfonamide]	0.6 nM	–	296 to 299 °C	–
COc1c(/C=C/c2ccc(NS(C)(=O)=O)cc2)cc(-c2c[nH]c(=O)[nH]c2=O)cc1C(F)(F)F [Compound I-35, N-(4-{(E)-2-[5-(2,4-Dioxo-1,2,3,4-tetrahydro-pyrimidin-5-yl)-2-methoxy-3-trifluoromethyl-phenyl]-vinyl}-phenyl)-methanesulfonamide]	0.5 nM	–	255 to 258 °C	–
COCc1cc(NS(C)(=O)=O)ccc1/C=C/c1cc(-c2c[nH]c(=O)[nH]c2=O)cc(C(C)(C)C)c1OC [Compound I-40, N-(4-{(E)-2-[3-tert-Butyl-5-(2,4-dioxo-1,2,3,4-tetrahydro-pyrimidin-5-yl)-2-methoxy-phenyl]-vinyl}-3-methoxymethyl-phenyl)-methanesulfonamide]	2.8 nM	–	172 to 175 °C	–
COc1c(/C=C/c2ccc(NS(C)(=O)=O)cc2)cc(-c2c[nH]c(=O)[nH]c2=O)cc1OC(F)(F)F [Compound I-42, N-(4-{(E)-2-[5-(2,4-Dioxo-1,2,3,4-tetrahydro-pyrimidin-5-yl)-2-methoxy-3-trifluoromethoxy-phenyl]-vinyl}-phenyl)-methanesulfonamide]	6.7 nM	–	202 to 205 °C	–
NC(=O)c1ncn([C@@H]2O[C@H](CO)[C@@H](O)[C@H]2O)n1 [ribavirin, 1-((2R,3R,4S,5R)-3,4-Dihydroxy-5-hydroxymethyl-tetrahydro-furan-2-yl)-1H[1,2,4]triazole-3-carboxylic acid amide]	–	–	–	serum levels of HCV-RNA ([4]; monotherapy / sole treatment): does not lower serum levels of HCV-RNA; patients with serum amino transferase levels reduced to normal ([4]; monotherapy): 40%
